target: human NaV 1.8 (Homo sapiens, UniProt Q9Y5Y9); test: E-VIPR assay detecting and measuring NaV inhibition properties; assay type: cell-based; conditions: HEK cells expressing a truncated form of human NaV 1.8; electrical stimulation, membrane potential FRET dyes; read-out: measured IC50 value in the E-VIPR Assay
Description: E-VIPR Assay Detecting and Measuring NaV Inhibition Properties
Sodium ion channels are voltage-dependent proteins that can be activated by inducing membrane voltage changes by applying electric fields. […] The instrument comprises a microtiter plate handler, an optical system for exciting the coumarin dye while simultaneously recording the coumarin and oxonol emissions, a waveform generator, a current- or voltage-controlled amplifier, and parallel electrode pairs that are inserted into assay plate wells. Under integrated computer control, this instrument passes user-programmed electrical stimulus protocols to cells within the wells of the microtiter plate.
16-20 hours prior to running the assay on E-VIPR, HEK cells expressing a truncated form of human NaV 1.8 with full channel activity were seeded into microtiter 384-well plates, pre-coated with matrigel, at a density of 25,000 cells per well. 2.5-5% KIR2.1 BacMam virus was added to the final cell suspension before seeding into cell plates. […] Cells were expanded in 5-layer CellSTACK culture chambers or cell culture flasks with vented caps, with 90-95% humidity and 5% CO2.
• Bath 1 Buffer containing 0.5% 3-cyclodextrin (made fresh prior to each use, Sigma #C4767), […] CC2-DMPE and 2 μM DiSBAC6(3). The solution was made by adding 10% Pluronic F127 stock equal to combined volumes of CC2-DMPE and DiSBAC6(3).
The compound plate was backfilled with 45 μL per well of Compound Loading Buffer resulting in a 240-fold dilution of compound following a 1:1 transfer of compound into the cell plate (see Step 6). […] This assay dilution protocol was adjusted to enable a higher dose range to be tested in the presence of HS or if the final assay volume was altered. • 2) Hexyl Dye Solution was prepared. • 3) Cell plates were prepared. On the day of the assay, the media was aspirated, and the cells were washed three times with 80 μL of Bath-1 buffer, maintaining 25 μL residual volume in each well. • 4) 25 μL per well of Hexyl Dye Solution was dispensed into the cell plates. The cells were incubated for 20 minutes at room temperature or ambient conditions in darkness. • 5) 45 μL per well of Compound Loading Buffer was dispensed into compound plates. • 6) The cell plates were washed three times with 80 μL per well of Bath-1 Buffer, leaving 25 μL of residual volume. Then 25 µL per well from compound plate was transferred to each cell plate. The mixture was incubated for 30 minutes at room temperature/ambient conditions. • 7) The cell plate containing compound was read on E-VIPR using the current-controlled amplifier to deliver stimulation wave pulses using a symmetrical biphasic waveform. […] A pre-stimulus recording was performed for each well for 0.5 seconds to obtain the un-stimulated intensities baseline. The stimulatory waveform was followed by 0.5 seconds of post-stimulation recording to examine the relaxation to the resting state. All E-VIPR responses were measured at 200 Hz acquisition rate.
The response as a function of time was reported as the ratios obtained using the following formula: […]
The data were normalized by calculating the initial (Ri) and final (Rf) ratios. These were the average ratio values during part or all of the pre-stimulation period and during sample points during the stimulation period. The fluorescence ratio (Rf/Ri) was then calculated and reported as a function of time.
Control responses were obtained by performing assays in the presence of the positive control, and in the absence of pharmacological agents (DMSO vehicle negative control). Responses to the negative (N) and positive (P) controls were calculated as above. The compound antagonist % activity A was then defined as:
[formula] • where X is the maximum amplitude of the ratio response or number of action potential peaks, at the beginning of the pulse train in the presence of test compound.

human NaV 1.8, sequence (Q9Y5Y9 126-399 limits assumed): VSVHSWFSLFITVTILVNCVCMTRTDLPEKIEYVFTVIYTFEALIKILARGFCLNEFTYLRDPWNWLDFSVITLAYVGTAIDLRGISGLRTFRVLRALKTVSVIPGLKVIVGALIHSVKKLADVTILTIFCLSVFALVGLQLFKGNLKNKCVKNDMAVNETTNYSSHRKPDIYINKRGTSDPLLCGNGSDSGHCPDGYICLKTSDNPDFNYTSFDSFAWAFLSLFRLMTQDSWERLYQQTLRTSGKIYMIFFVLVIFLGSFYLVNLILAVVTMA
human NaV 1.8, sequence (Q9Y5Y9 660-890 limits assumed): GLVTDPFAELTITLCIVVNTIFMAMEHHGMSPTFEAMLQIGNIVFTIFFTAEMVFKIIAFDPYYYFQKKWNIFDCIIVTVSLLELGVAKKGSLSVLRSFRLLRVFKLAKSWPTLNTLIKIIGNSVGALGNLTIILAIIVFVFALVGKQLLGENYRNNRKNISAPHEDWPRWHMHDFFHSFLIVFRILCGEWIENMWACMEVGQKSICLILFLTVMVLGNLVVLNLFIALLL
human NaV 1.8, sequence (Q9Y5Y9 1148-1722 limits assumed): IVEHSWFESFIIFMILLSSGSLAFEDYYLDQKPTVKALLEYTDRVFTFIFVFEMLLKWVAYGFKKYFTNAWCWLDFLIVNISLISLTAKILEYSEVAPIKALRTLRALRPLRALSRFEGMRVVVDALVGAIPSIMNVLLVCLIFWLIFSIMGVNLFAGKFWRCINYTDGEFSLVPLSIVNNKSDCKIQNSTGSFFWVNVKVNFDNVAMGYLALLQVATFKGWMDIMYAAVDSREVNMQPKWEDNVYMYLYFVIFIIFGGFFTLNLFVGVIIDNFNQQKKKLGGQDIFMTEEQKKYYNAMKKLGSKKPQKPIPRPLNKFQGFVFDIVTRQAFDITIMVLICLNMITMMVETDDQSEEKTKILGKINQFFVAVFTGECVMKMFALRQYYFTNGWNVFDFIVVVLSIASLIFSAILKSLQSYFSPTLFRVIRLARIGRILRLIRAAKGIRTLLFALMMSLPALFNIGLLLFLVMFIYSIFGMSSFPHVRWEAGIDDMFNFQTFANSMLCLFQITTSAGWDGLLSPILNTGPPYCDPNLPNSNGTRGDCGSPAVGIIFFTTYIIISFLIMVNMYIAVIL

Row | Compound | IC50
1 | Cc1cc(=O)cc(-c2ccc(C(C)C)cc2C(C)C)[nH]1 [Compound 43, 2-(2,4-diisopropylphenyl)-6-methyl-1H-pyridin-4-one] | 2 to 5 µM
2 | Cc1cc(C(C)(C)C)ccc1-c1cc(=O)c(C2=CCN(C)CC2)c(C)[nH]1 [Compound 174, 6-(4-tert-butyl-2-methyl-phenyl)-2-methyl-3-(1-methyl-3,6-dihydro-2H-pyridin-4-yl)-1H-pyridin-4-one] | 2 to 5 µM
3 | COc1cc(=O)cc(-c2ccc(C(C)(C)C)cc2C)[nH]1 [Compound 104, 2-(4-tert-butyl-2-methyl-phenyl)-6-methoxy-1H-pyridin-4-one] | 2 to 5 µM
4 | Cc1cc(C(C)(C)C)ccc1-c1cc(=O)c(C2=CCNCC2)c(C)[nH]1 [Compound 205, 6-(4-tert-butyl-2-methyl-phenyl)-2-methyl-3-(1,2,3,6-tetrahydropyridin-4-yl)-1H-pyridin-4-one] | 0.5 to 2 µM
5 | COc1nc2ccccc2cc1-c1cc(=O)c(C)c(C)[nH]1 [Compound 95, 6-(2-methoxy-3-quinolyl)-2,3-dimethyl-1H-pyridin-4-one] | 2 to 5 µM
6 | COCn1ccnc1-c1c(C)[nH]c(-c2cc(Cl)c(C(C)(C)C)cc2C)cc1=O [Compound 201, 6-(4-tert-butyl-5-chloro-2-methyl-phenyl)-3-[1-(methoxymethyl)imidazol-2-yl]-2-methyl-1H-pyridin-4-one] | 2 to 5 µM
7 | Cc1[nH]c(-c2ccc(C(C)(C)C)cc2)cc(=O)c1C [Compound 79, 6-(4-tert-butylphenyl)-2,3-dimethyl-1H-pyridin-4-one] | 0.5 to 2 µM
8 | CCOc1c(-c2ccc(C(C)(C)C)cc2C)[nH]c(C)cc1=O [Compound 106, 2-(4-tert-butyl-2-methyl-phenyl)-3-ethoxy-6-methyl-1H-pyridin-4-one] | 0.5 to 2 µM
9 | Cc1cc(C(C)(C)C)ccc1-c1cc(=O)c(NC(=O)[C@H](C)N)c(C)[nH]1 [Compound 156, (2S)-2-amino-N-[6-(4-tert-butyl-2-methyl-phenyl)-2-methyl-4-oxo-1H-pyridin-3-yl]propanamide] | 2 to 5 µM
10 | Cc1cc(C(C)(C)C)c(Cl)cc1-c1cc(=O)c(-c2ncc[nH]2)c(C)[nH]1 [Compound 212, 6-(4-tert-butyl-5-chloro-2-methyl-phenyl)-3-(1H-imidazol-2-yl)-2-methyl-1H-pyridin-4-one] | 0.5 to 2 µM
11 | Cc1cc(=O)c(C)c(-c2ccc(C3(C(F)(F)F)CC3)cc2)[nH]1 [Compound 78, 3,6-dimethyl-2-[4-[1-(trifluoromethyl)cyclopropyl]phenyl]-1H-pyridin-4-one] | 2 to 5 µM
12 | Cc1cc(=O)cc(-c2c(C)cc(C(C)(C)C)cc2C)[nH]1 [Compound 3, 2-(4-tert-butyl-2,6-dimethyl-phenyl)-6-methyl-1H-pyridin-4-one] | 0.5 to 2 µM
13 | CCOC(=O)c1c(-c2c(C)cc(C(C)(C)C)cc2C)[nH]c(C)c(C)c1=O [Compound 98, ethyl 2-(4-tert-butyl-2,6-dimethyl-phenyl)-5,6-dimethyl-4-oxo-1H-pyridine-3-carboxylate] | 0.5 to 2 µM
14 | Cc1[nH]c(-c2ccc(C3(C(F)(F)F)CC3)cc2)cc(=O)c1C [Compound 82, 2,3-dimethyl-6-[4-[1-(trifluoromethyl)cyclopropyl]phenyl]-1H-pyridin-4-one] | 0.5 to 2 µM
15 | Cc1nc(-c2ccc(C(C)(C)C)cc2C)cc(=O)[nH]1 [Compound 83, 4-(4-tert-butyl-2-methyl-phenyl)-2-methyl-1H-pyrimidin-6-one] | 2 to 5 µM
16 | Cc1cc(C(C)(C)C)ccc1-c1cc(=O)c(CN)c(C)[nH]1 [Compound 154, 3-(aminomethyl)-6-(4-tert-butyl-2-methyl-phenyl)-2-methyl-1H-pyridin-4-one] | 0.5 to 2 µM
17 | Cc1cc(C(C)(C)C)c(Cl)cc1-c1cc(=O)c(S(=N)(=O)C(C)C)c(C)[nH]1 (stereo not drawn) [Compound 145, 6-(4-tert-butyl-5-chloro-2-methyl-phenyl)-3-(isopropylsulfonimidoyl)-2-methyl-1H-pyridin-4-one] | 0.5 to 2 µM

More lines, now with the values ahead:

Row | IC50 | Compound
18 | 0.5 to 2 µM | Cc1cc(=O)c(C)c(-c2ccc(C(C)(C)C)cc2C)[nH]1 [Compound 75, 2-(4-tert-butyl-2-methyl-phenyl)-3,6-dimethyl-1H-pyridin-4-one]
19 | 0.5 to 2 µM | CC(=O)Nc1c(C)[nH]c(-c2ccc(C(C)(C)C)cc2C)cc1=O [Compound 157, N-[6-(4-tert-butyl-2-methyl-phenyl)-2-methyl-4-oxo-1H-pyridin-3-yl]acetamide]
20 | 0.5 to 2 µM | Cc1cc(C(C)(C)C)ccc1-c1cc(=O)c(NC(=O)[C@@H](C)N)c(C)[nH]1 [Compound 155, (2R)-2-amino-N-[6-(4-tert-butyl-2-methyl-phenyl)-2-methyl-4-oxo-1H-pyridin-3-yl]propanamide]
21 | 0.5 to 2 µM | Cc1cc(C(C)(C)C)ccc1-c1cc(=O)c(-c2cccnc2C#N)c(C)[nH]1 [Compound 172, 3-[6-(4-tert-butyl-2-methyl-phenyl)-2-methyl-4-oxo-1H-pyridin-3-yl]pyridine-2-carbonitrile]
22 | 0.5 to 2 µM | Cc1cc(C(C)(C)C)c(Cl)cc1-c1cc(=O)c(-c2cn(C)c(C)n2)c(C)[nH]1 [Compound 197, 6-(4-tert-butyl-5-chloro-2-methyl-phenyl)-3-(1,2-dimethylimidazol-4-yl)-2-methyl-1H-pyridin-4-one]
23 | 0.5 to 2 µM | Cc1cc(C(C)(C)C)ccc1-c1cc(=O)cc(N(C)C)[nH]1 [Compound 100, 2-(4-tert-butyl-2-methyl-phenyl)-6-(dimethylamino)-1H-pyridin-4-one]
24 | 0.5 to 2 µM | Cc1cc(=O)cc(-c2ccc(C3(C(F)(F)F)CC3)cc2C)[nH]1 [Compound 96, 2-methyl-6-[2-methyl-4-[1-(trifluoromethyl)cyclopropyl]phenyl]-1H-pyridin-4-one]
25 | 0.5 to 2 µM | Cc1cc(C(C)(C)C)ccc1-c1cc(=O)c(C2CCN(C)CC2)c(C)[nH]1 [Compound 204, 6-(4-tert-butyl-2-methyl-phenyl)-2-methyl-3-(1-methyl-4-piperidyl)-1H-pyridin-4-one]
26 | 0.5 to 2 µM | COc1c(-c2ccc(C(C)(C)C)cc2C)[nH]c(C)cc1=O [Compound 107, 2-(4-tert-butyl-2-methyl-phenyl)-3-methoxy-6-methyl-1H-pyridin-4-one]
27 | 0.5 to 2 µM | Cc1cc(=O)c(C)c(-c2ccc(C(C)(C)C)cc2)[nH]1 [Compound 77, 2-(4-tert-butylphenyl)-3,6-dimethyl-1H-pyridin-4-one]
